The results in this text go back to PMC9529094, “Identification of natural cytochalasins as leads for neglected tropical diseases drug discovery” (PLoS ONE, 2022).

The term CC50 denotes the concentration that lowers cell viability or growth by half. What is called IC50 is the concentration at which inhibition is half-maximal.

Like-named read-outs stand apart in the source and are kept apart here. Where only a bound is given, the exact number is not on record here.

The nature of series [1]: in vitro. Type of series: cell-based. The conditions noted are these: human, 72 h, MTS. As to the method: (§1) THP-1 (human monocyte cell line) cells were cultivated in RPMI medium supplemented with 10% foetal calf serum (FCS) (Cultilab, Campinas, SP, BR) and 1% penicillin and streptomycin (pen/strep—Sigma-Aldrich) at 37°C under 5% CO2, and HFF-1 (human fibroblast) and HepG2 (hepatocytes) cells were cultivated in DMEM without phenol red (Cultilab) supplemented with 10% FBS (Sigma-Aldrich) and 1% pen/strep at 37°C under 5% CO2.
The cytotoxicity of the compounds against HFF-1 fibroblasts and HepG2 hepatocytes was evaluated using the MTS tetrazolium assay (Promega, Madison, WI, USA). HFF-1 fibroblasts were seeded at 4x10^3/well in 96-well culture plates in DMEM without phenol red and incubated overnight (37°C, 5% CO2). HepG2 hepatocytes were seeded at 7x10^3/well in 96-well culture plates in DMEM (Cultilab) with supplements (10% FCS, 1% pen/strep) and incubated overnight (37°C, 5% CO2). The compounds were added in 2-fold serial dilutions at the same concentrations described before, and the plates were incubated as described before. Each compound concentration was evaluated in duplicate. All the plates included doxorubicin (DOX) (Sigma-Aldrich) as a positive control (10–0.01 μM) and untreated wells as a negative control (100% growth). After 72 h, 15 μL of MTS (Promega) was added, and the plates were incubated for 4 h. The absorbance was measured at 490 nm in an automated SpectraMax 384 microplate reader (Sunnyvale, CA, USA), and the data were analysed using GraphPad Prism version 8.0 for CC50 value calculation. The percentage of nonviable cells was determined and compared to the negative control wells (100% growth).

Series [2] has as its system intracellular T. cruzi Tulahuen LacZ amastigotes. Nature of the series: microbe, parasite or virus in culture. In kind it is cell-based, Trypanosoma cruzi. As for the experimental part: (§2) The epimastigote forms of the T. cruzi Tulahuen strain, which expresses the E. coli β-galactosidase gene lacZ [11], were grown in liver infusion tryptone (LIT) supplemented with 10% FCS (Cultilab) and 1% pen/strep (Sigma–Aldrich) at 28°C. Metacyclogenesis from epimastigotes to trypomastigotes was induced by the incubation of the epimastigotes in Grace’s insect medium (Sigma-Aldrich, 28°C) every 5 days. After 5 days, the trypomastigote forms were used to infect the HFF-1 cells. The promastigote forms of L. infantum were maintained in Schneider’s insect medium (Sigma-Aldrich) supplemented with 10% FCS (Cultilab) and 1% pen/strep (Sigma-Aldrich) at 28°C and subcultured every 6 or 7 days.
In vitro assays against T. cruzi were performed as described previously. HFF-1 human fibroblasts were seeded at 4x10^3/well in 96-well tissue culture plates in DMEM (Cultilab) without phenol red and then incubated overnight (37°C, 5% CO2). Next, trypomastigotes were added at 4x10^4/well, and the plates were incubated (37°C, 5% CO2). After 24 h, 2-fold serial dilutions of the test compounds were added at concentrations ranging from 64 to 0.12 μM, and the plates were then incubated (37°C, 5% CO2). Each compound concentration was evaluated in duplicate. All the plates included BZ (64–0.12 μM) (Sigma-Aldrich) as a positive control and untreated wells (100% growth) as a negative control. After 120 h, chlorophenol red β-D-galactopyranoside (CPRG, Sigma-Aldrich) was added to each well. The absorbance was measured at 570 nm in an automated SpectraMax 384 microplate reader (Sunnyvale, CA, USA), and the data were analysed using GraphPad Prism version 8.0 (San Diego, CA, USA) for IC50 value calculation.
(§3) The analyses were performed using GraphPad Prism version 8.0 (GraphPad Software, San Diego, CA, USA). Both the IC50 and CC50 values were calculated by adjusting the sigmoid dose-response curves, and the selectivity index (SI) values were determined by CC50/IC50 [16]. Statistical analyses were performed using one-way ANOVA followed by Dunnett’s multiple comparison test.

The nature of series [3]: in vitro. In kind it is cell-based. The conditions noted are these: human; 72 h, resazurin; read-out: THP-1 CC50 (μM ± SD). As for the experimental part: as §1
THP-1 cells were seeded at 2x10^4/well in 96-well culture plates in RPMI 1640 supplemented (10% FCS, 1% pen/strep) and incubated overnight (37°C, 5% CO2). The compounds were added in 2-fold serial dilutions (64–0.12 μM), and the plates were incubated as described before. Each compound concentration was evaluated in duplicate. All the plates included DOX (Sigma-Aldrich) as a positive control (10–0.01 μM) and untreated wells as a negative control (100% growth). After 72 h, 20 μL of resazurin (Sigma-Aldrich) was added, and the plates were incubated for 4 h. The absorbance was measured at 536 and 588 nm in an automated microplate reader SpectraMax Gemini, and the data were analysed using GraphPad Prism version 8.0 for CC50 value calculation. The percentage of nonviable cells was determined and compared to the negative control wells (100% growth).
A general note: Alamar Blue is a resazurin reagent that responds to reducing activity.

The subject of series [4] is intracellular L. infantum amastigotes. The experiment in a line: microbe, parasite or virus in culture. Type of series: cell-based, Leishmania infantum. As to the method:
as §2
In the intracellular amastigote assay, THP-1 cells were seeded at 2x10^4/well (RPMI-1640, 100 μL) with phorbol 12-myristate 13-acetate (PMA) at 20 ng/mL for differentiation into macrophages. After incubation for 72 h (5% CO2, 37°C), the medium was aspirated, and late-stage L. infantum promastigotes were added (2x10^5/well, 100 μL). Following 24 h of incubation, the medium was aspirated to clear extracellular parasites, and the compounds were added in serial dilutions (2-fold) to final concentrations of 64–0.12 μM. The plates included negative controls (100% growth) and MIL (64–0.12 μM) as a positive control. After 120 h of incubation, the medium was removed, and the cells were fixed in methanol and stained with Giemsa. The average number of intracellular amastigotes per THP-1-cell was determined using an inverted microscope and a cell counter. Growth inhibition is expressed as a percentage of the average number of amastigotes per macrophage in the negative control wells. The IC50 values were obtained using GraphPad Prism version 8.0.
as §3

With `O=C(Cn1ccnc1[N+](=O)[O-])NCc1ccccc1` [BZ, benznidazole, reference compound], in the series “in vitro [1]” (read-out: HFF-1 CC50 (μM ± SD)), the CC50 is above 64 µM. For the same compound, in series [2] (Trypanosoma cruzi, intracellular amastigotes, Tulahuen LacZ, HFF-1 host cells, 120 h, read-out: T. cruzi IC50 (μM ± SD)), the half-inhibitory concentration (IC50) turned out to be 5.2 ± 1.87 µM. The “SI^1 (CC50 HFF-1/IC50 T. cruzi)” value in series [2] (selectivity index) is given as above 12.3.
On to `COc1cccc2c1C(=O)c1c(O)c3c(c(O)c1C2=O)C[C@@](O)(C(=O)CO)C[C@@H]3O[C@H]1C[C@H](N)[C@H](O)[C@H](C)O1` [DOX, doxorubicin, reference compound], for which the values for the CC50 in the series “in vitro [1]” (read-out: HFF-1 CC50 (μM ± SD)), in “in vitro [1]” (read-out: HepG2 CC50 (μM ± SD)) and in the series “in vitro [3]” were 0.69 ± 0.08 µM, 0.24 ± 0.06 µM and 0.97 ± 0.31 µM, respectively.
With `CCCCCCCCCCCCCCCCOP(=O)([O-])OCC[N+](C)(C)C` [MIL, miltefosine, reference compound], in series [4] (Leishmania infantum, THP-1, 120 h, intracellular amastigotes in THP-1 macrophages, 120 h, read-out: L. infantum IC50 (μM ± SD)), the IC50 worked out at 1.1 ± 0.16 µM. Besides, in series [4] (selectivity index), the “SI^2 (CC50 THP-1/IC50 L. infantum)” value was determined as 53.14. Moreover, the CC50 in “in vitro [3]” stood at 58.5 ± 5.37 µM.
